Test results: paper PMC6694155, “PTPσ inhibitors promote hematopoietic stem cell regeneration” (Nature Communications, 2019)
Several values for one entry are separate records, joined by “and”; a condition that tells them apart may be missing. Equal entries are not always repeated.

Tests used:
[1] = system: PPA (Protein Phosphatase 1); assay: PhosphataseProfiler screen: PPA; format: biochemical; conditions: replicates, in % (unit assumed)
Method: (§1) Compound DJ001 was evaluated in a PhosphataseProfiler™ screen at 10 μM and 1 μM (2.7 μg/mL and 0.27 μg/mL) concentrations at Eurofins Pharma Discovery Services UK (Study number UK022-0004033) against a panel of 21 Phosphatases. In each experiment, the respective reference antagonist/agonist was tested directly with DJ001 and the data were compared with historical values determined at Eurofins. DJ001 compound inhibition was calculated as percentage inhibition of the enzymatic activity compared with control.

[2] = biological target: T1, PTPMEG1 (Megakaryocyte Protein-Tyrosine Phosphatase 1) (Homo sapiens, UniProt P29074); assay: PhosphataseProfiler screen: PTPMEG1; format: biochemical; conditions: replicates
T1 construct: purchased Eurofins Pharma Discovery Services UK
Method: as §1

[3] = biological target: T2, PTP1B (Protein Tyrosine Phosphatase 1B) (Homo sapiens, UniProt P18031); assay: PhosphataseProfiler screen: PTP1B; format: biochemical; conditions: replicates
T2 construct: purchased Eurofins Pharma Discovery Services UK
Method: as §1

BCL-XL in BM KSL cells = assay: BCL-XL protein intracellular flow cytometry of BM KSL cells; format: cell-based, mouse
Method: Intracellular flow cytometric analysis was performed on irradiated (300 cGy) or non-irradiated, sorted KSL cells after treatment with 1 μg/mL DJ001 or control (equal volumes of DMSO) for 24 h. At 24 h after irradiation, cells were fixed with 4% PFA for 10 min, followed by permeabilization using 0.25% saponin in PBS. Cells were washed again and stained with antibody at the recommended concentrations for 30 min at RT. Intracellular antibodies and phospho-flow antibodies used were as follows: FITC-conjugated anti-BCL-XL (Abcam, #26148, 1:100), active RAC1-GTP antibody (NewEast Biosciences, #26903, 1:100) and anti-PAK1 (phospho S144) + PAK2 (phospho S141) + PAK3 (phospho S154) antibody (Abcam, #40795, 1:100), and FITC-conjugated goat anti-rabbit IgG H&L (Abcam, #97050, 1:200).

[4] = system: BM KSL cells; donor CD45.2+ cells; assay: In vivo BrdU incorporation analysis; set-up: species or system mouse
Method: For BrdU incorporation analysis in BM KSL cells in vivo, adult C57Bl/6 mice were irradiated with 750 cGy TBI and treated with 5 mg/kg DJ001 or vehicle daily from day + 1 to day + 10. On day + 10, mice were injected intraperitoneally with 2 mg BrdU (BD Biosciences). Sixteen hours later, BM cells were collected and stained with anti-BrdU FITC (BD Biosciences, #557891, 1:50), APC-Cy7-conjugated anti-Sca1 (BD Biosciences, #560654, 1:100), PE-conjugated anti-c-kit (BD Biosciences, #553355, 1:100), and V450 lineage cocktail (BD Biosciences, #561301, 1:10). We repeated this BrdU incorporation analysis on donor CD45.2^+ cells at day + 7 and day + 21 following competitive transplantation into recipient CD45.1^+ mice.

human CD34+CD38− cells = assay: BCL2L1 and MCL-1 gene expression in irradiated human CD34+CD38− cells (qPCR); format: cell-based
From the text: For all studies, RNA was isolated using the Qiagen RNeasy micro kit (Qiagen). RNA was reverse transcribed using the High-Capacity cDNA Reverse Transcription Kit (ThermoFisher Scientific) and was then used for quantitative PCR with SYBR Select Master Mix (Life Technologies). Values were normalized to housekeeping gene Gapdh/GAPDH and given as ΔΔCt values normalized to media-treated, non-irradiated BM KSL cells (2(−ΔΔC(T)) method)[67].

[5] = system: RAC1-GTP in BM lin− cells; assay: G-LISA activation assay: RAC1-GTP; format: cell-based, mouse; conditions: for RAC1-GTP level (G-LISA): Supplementary Figure 7c
Method: The RAC1-GTP, RHOA-GTP, and CDC42-GTP activation levels in BM lin^− cells were measured using a colorimetric-based RAC1-, RHOA-, and CDC42 G-LISA Activation Assay Kit (Cytoskeleton, Inc.). BM cells from femurs and tibias were isolated from 12-week-old Ptprs^+/+ and Ptprs^−/− mice. Cells were then depleted of lineage-committed cells with Direct Lineage Cell Depletion Kit (Miltenyi Biotec, #130-110-470; 1:5). The BM lin^− cell fraction was then serum starved in Iscove’s modified Dulbecco’s medium (IMDM) and treated with either vehicle (equal amount of DMSO) or 1 μg/mL DJ001 for 10 min at 37 °C. After treatment, cells were washed with ice-cold PBS and then placed in lysis buffer supplemented with protease inhibitor. Lysate concentrations were measured by Pierce^TM BCA Protein Assay Kit (ThermoFisher Scientific). G-LISA was performed according to the manufacturer’s instructions. Briefly, 12.5 μg of lysates was added to a GTP-binding protein pre-coated plate and active RAC1-GTP, RHOA-GTP, or CDC42-GTP levels were measured at 490 nm using a PowerWave XS2 microplate reader (BioTek).

[6] = irradiated human CD34+CD38− cells, qPCR, replicates

T1 sequence (P29074 whole entry): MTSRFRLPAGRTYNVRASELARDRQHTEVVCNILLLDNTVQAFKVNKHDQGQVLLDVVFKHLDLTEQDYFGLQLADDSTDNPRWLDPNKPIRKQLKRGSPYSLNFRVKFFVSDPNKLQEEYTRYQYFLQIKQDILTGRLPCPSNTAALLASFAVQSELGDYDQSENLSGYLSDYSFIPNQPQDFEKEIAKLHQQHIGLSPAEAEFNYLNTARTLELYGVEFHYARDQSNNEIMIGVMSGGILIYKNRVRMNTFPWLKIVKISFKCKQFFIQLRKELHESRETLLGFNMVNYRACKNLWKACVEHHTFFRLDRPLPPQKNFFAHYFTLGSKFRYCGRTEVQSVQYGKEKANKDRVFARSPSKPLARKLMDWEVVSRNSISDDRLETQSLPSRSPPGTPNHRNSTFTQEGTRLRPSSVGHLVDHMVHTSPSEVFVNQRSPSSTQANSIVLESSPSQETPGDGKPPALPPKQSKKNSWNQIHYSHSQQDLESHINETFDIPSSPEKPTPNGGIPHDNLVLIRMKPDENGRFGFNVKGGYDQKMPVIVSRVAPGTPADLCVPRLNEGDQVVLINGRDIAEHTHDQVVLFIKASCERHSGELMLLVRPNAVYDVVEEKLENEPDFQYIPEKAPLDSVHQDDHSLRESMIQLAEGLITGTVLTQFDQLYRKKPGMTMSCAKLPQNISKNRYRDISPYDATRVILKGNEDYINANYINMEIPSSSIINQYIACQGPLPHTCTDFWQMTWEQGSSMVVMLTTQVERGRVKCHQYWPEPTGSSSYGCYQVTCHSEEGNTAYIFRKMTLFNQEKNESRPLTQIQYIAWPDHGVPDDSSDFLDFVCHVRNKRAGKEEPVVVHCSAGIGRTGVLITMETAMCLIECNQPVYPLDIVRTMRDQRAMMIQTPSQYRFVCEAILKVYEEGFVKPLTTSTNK
T2 sequence (P18031 whole entry, species assumed): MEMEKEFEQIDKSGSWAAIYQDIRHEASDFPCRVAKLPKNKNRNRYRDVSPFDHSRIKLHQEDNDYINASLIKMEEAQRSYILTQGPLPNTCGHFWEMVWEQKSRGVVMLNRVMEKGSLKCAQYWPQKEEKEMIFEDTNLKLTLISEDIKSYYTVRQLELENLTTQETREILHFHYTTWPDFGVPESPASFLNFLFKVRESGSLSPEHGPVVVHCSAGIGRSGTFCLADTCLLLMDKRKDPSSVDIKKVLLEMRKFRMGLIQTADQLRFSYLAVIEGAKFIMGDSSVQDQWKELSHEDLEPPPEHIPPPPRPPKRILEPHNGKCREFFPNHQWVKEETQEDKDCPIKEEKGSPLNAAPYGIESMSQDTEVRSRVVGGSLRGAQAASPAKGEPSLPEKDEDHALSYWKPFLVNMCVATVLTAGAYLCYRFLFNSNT

SMILES	Supplementary Figure 1: PPA activity ([1]; 2.7 μg/mL DJ001)	Supplementary Figure 1: PPA activity ([1]; 0.27 g/mL DJ001)	Supplementary Figure 1: PTP MEG1 activity ([2]; 2.7 μg/mL DJ001)	Supplementary Figure 1: PTP MEG1 activity ([2]; 0.27 g/mL DJ001)	Supplementary Figure 1: PTP1B activity ([3]; 0.27 μg/mL DJ001)	Supplementary Figure 1: PTP1B activity ([3]; 2.7 μg/mL DJ001)	BCL-XL protein levels (BCL-XL in BM KSL cells; 300 cGy-irradiated BM KSL cells)	Figure 3h: BCL-XL protein in BM KSL cells (BCL-XL in BM KSL cells; irradiated cells, replicates)	BrdU incorporation ([4]; Supplementary Figure 7i)	BrdU incorporation in donor CD45.2+ cells, DJ001 vs vehicle group ([4]; day +7 and day +21 following competitive transplantation)	BrdU incorporation in BM KSL cells vs vehicle ([4]; day +10 following 750 cGy TBI)	expression of BCL2L1 and MCL-1 (human CD34+CD38− cells; irradiated human CD34+ cells, 12 h after 300 cGy)	Figure 5d: gene expression, BCL-XL (human CD34+CD38− cells; [6])	Figure 5d: gene expression, MCL1 (human CD34+CD38− cells; [6])	RAC1 activation ([5]; BM cells from Ptprs−/− mice, 1 μg/ml DJ001, 10 min)	RAC1-GTP level (G-LISA) ([5]; Ptprs+/+ cells)	RAC1-GTP level (G-LISA) ([5]; Ptprs-/- cells)
O=C(/C=C\Nc1cccc([N+](=O)[O-])c1)c1ccccc1 [DJ001, (Z)-3-((3-nitrophenyl)amino)-1-phenylprop-2-en-1-one]	101 and 93 and 96	96 and 90 and 101	100 and 92 and 105	103 and 114 and 105	97 and 90 and 91	96 and 86 and 90	increased	17.43 and 16.61 and 16.35 and 15.49 and 16.56 and 12.16	36.54 and 44.684 and 44.262 and 33.456	no difference in BrdU incorporation	increased bromodeoxyuridine (BrdU) incorporation	increased the expression	7.91 and 7.15 and 7.38	3.75 and 3.41 and 4.98	–	–	–
O=C(/C=C\Nc1cc(F)cc(F)c1)c1ccccc1 [DJ009, (Z)-3-((3,5-difluorophenyl)amino)-1-phenylprop-2-en-1-one]	–	–	–	–	–	–	–	–	–	–	–	–	–	–	did not induce RAC1 activation	0.459 and 0.438 and 0.567	0.402 and 0.353 and 0.351 and 0.292
